Data taken from ChEMBL document CHEMBL4507278 (2021).

Experiments:
[1] = target: Mitogen-activated protein kinase kinase kinase 3 (Homo sapiens) (UniProt Q99759); conditions: Compound concentration 1000.0 nM
[2] = target: 5-hydroxytryptamine receptor 2C (Homo sapiens) (UniProt P28335); conditions: Compound concentration 10.0 uM
[3] = target: Muscarinic acetylcholine receptor M3 (Homo sapiens) (UniProt P20309); conditions: Compound concentration 10.0 uM
[4] = target: Endothelin-1 receptor (Homo sapiens) (UniProt P25101); assay: ETA/HU Eurofins-Panlabs selectivity data (BI); conditions: Compound concentration 10.0 uM
[5] = target: Substance-P receptor (Homo sapiens) (UniProt P25103); assay: NK1/HU Eurofins-Panlabs selectivity data (BI); conditions: Compound concentration 10.0 uM
Sequence of Substance-P receptor (Homo sapiens) (P25103 whole entry, canonical isoform): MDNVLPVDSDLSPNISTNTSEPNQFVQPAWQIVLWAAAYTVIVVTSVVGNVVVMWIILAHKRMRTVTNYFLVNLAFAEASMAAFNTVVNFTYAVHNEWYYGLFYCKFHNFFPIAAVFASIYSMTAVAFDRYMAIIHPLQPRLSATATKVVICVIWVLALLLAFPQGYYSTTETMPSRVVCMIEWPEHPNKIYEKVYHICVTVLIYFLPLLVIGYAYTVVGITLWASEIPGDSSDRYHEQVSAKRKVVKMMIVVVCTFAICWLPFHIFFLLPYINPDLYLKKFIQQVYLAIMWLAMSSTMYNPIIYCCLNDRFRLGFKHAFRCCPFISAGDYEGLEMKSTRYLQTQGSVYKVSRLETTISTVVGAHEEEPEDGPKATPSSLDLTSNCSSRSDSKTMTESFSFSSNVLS

[6] = target: ATP-sensitive inward rectifier potassium channel 1 isoform X1 (Mesocricetus auratus) (UniProt A0A1U8CU73); assay: K+/KATP/HA Eurofins-Panlabs selectivity data (BI); conditions: Compound concentration 10.0 uM
Sequence of ATP-sensitive inward rectifier potassium channel 1 isoform X1 (Mesocricetus auratus) (A0A1U8CU73 as listed by the source): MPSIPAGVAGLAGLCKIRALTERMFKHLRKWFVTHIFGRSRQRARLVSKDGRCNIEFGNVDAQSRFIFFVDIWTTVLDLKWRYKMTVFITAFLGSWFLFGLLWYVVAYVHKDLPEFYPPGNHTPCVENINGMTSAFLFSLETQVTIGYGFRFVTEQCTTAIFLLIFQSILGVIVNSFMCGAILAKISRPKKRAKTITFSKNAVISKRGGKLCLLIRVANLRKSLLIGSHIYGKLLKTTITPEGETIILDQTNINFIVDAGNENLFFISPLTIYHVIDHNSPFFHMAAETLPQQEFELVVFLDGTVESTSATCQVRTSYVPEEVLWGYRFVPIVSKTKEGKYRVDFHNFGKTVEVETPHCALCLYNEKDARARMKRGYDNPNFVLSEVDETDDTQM

[7] = target: Sodium-dependent serotonin transporter (Homo sapiens) (UniProt P31645); assay: 5HTTRANS/HU Eurofins-Panlabs selectivity data (BI); conditions: Compound concentration 10.0 uM
[8] = target: D(1A) dopamine receptor (Homo sapiens) (UniProt P21728); assay: D1/HU Eurofins-Panlabs selectivity data (BI); conditions: Compound concentration 10.0 uM
Sequence of D(1A) dopamine receptor (Homo sapiens) (P21728 whole entry): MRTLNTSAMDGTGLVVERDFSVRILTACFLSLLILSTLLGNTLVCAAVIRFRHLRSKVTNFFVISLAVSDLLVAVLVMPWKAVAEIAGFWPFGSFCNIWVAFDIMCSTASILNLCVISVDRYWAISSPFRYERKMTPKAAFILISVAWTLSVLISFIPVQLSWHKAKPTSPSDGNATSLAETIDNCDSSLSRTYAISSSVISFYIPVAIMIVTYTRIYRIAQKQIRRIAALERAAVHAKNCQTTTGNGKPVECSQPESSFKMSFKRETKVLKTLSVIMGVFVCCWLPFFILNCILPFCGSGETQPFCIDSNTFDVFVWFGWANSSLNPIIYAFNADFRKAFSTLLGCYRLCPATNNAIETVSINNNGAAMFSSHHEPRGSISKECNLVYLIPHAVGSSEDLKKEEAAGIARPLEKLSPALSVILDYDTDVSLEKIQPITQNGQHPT

[9] = target: Sodium channel regulatory subunit beta-1 (Rattus norvegicus) (UniProt Q00954); assay: NA+/SITE2/RA Eurofins-Panlabs selectivity data (BI); conditions: Compound concentration 10.0 uM
Sequence of Sodium channel regulatory subunit beta-1 (Rattus norvegicus) (Q00954 whole entry): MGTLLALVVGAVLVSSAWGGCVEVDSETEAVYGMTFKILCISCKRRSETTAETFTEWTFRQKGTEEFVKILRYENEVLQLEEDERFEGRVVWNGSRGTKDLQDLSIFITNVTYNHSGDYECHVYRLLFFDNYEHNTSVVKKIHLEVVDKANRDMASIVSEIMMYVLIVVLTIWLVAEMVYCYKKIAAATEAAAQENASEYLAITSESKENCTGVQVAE

[10] = target: Muscarinic acetylcholine receptor M3 (Homo sapiens) (UniProt P20309); assay: M3/HU Eurofins-Panlabs selectivity data (BI); conditions: Compound concentration 10.0 uM
[11] = target: Delta-type opioid receptor (Homo sapiens) (UniProt P41143); assay: DELTA/HU Eurofins-Panlabs selectivity data (BI); conditions: Compound concentration 10.0 uM
Sequence of Delta-type opioid receptor (Homo sapiens) (P41143 whole entry): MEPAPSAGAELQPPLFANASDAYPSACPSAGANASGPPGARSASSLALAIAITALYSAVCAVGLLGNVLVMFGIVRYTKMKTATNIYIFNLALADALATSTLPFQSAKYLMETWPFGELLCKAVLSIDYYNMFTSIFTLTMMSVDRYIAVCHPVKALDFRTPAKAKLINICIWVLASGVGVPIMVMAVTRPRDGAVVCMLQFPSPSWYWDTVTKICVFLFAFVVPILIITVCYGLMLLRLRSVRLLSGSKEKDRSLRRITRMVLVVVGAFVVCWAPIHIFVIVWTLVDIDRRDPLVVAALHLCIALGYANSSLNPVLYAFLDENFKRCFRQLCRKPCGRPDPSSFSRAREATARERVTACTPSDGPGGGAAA

[12] = target: T1, Alpha-2A adrenergic receptor (Homo sapiens) (UniProt P08913); assay: ALPHA2A/H Eurofins-Panlabs selectivity data (BI); conditions: Compound concentration 10.0 uM
T1 sequence (whole entry): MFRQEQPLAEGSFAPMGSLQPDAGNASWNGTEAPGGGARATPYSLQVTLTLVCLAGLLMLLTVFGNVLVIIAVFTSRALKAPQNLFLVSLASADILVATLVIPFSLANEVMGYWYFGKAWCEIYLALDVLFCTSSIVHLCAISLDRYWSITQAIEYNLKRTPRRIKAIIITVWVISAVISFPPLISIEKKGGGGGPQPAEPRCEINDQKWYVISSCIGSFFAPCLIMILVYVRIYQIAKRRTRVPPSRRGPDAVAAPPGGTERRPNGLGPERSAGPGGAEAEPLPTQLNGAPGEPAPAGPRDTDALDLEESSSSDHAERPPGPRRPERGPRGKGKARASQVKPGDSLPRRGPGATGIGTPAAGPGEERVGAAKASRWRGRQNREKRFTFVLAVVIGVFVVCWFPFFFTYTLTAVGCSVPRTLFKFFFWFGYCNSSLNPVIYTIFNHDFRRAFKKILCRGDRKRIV

[13] = target: T2, D(4) dopamine receptor (Homo sapiens) (UniProt P21917); assay: D4.2/H Eurofins-Panlabs selectivity data (BI); conditions: Compound concentration 10.0 uM
T2 sequence (whole entry): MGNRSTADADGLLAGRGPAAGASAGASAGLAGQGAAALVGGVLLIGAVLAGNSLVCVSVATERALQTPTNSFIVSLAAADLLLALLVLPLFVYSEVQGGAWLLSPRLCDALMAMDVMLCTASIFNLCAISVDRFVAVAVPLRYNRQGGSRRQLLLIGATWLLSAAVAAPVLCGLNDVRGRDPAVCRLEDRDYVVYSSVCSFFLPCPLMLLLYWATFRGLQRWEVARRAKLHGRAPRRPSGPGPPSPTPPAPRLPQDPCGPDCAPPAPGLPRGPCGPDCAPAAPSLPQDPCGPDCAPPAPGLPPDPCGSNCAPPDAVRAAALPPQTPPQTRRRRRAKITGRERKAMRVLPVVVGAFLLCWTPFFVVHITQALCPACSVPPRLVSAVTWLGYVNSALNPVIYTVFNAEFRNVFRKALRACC

[14] = target: Glutamate receptor ionotropic, NMDA 1 (Rattus norvegicus) (UniProt P35439); assay: NMDAGLSI/RA Eurofins-Panlabs selectivity data (BI); conditions: Compound concentration 10.0 uM
[15] = target: Acetylcholine receptor subunit alpha (Homo sapiens) (UniProt P02708); assay: NACH/H Eurofins-Panlabs selectivity data (BI); conditions: Compound concentration 10.0 uM
[16] = target: Histamine H3 receptor (Homo sapiens) (UniProt Q9Y5N1); assay: H3/H Eurofins-Panlabs selectivity data (BI); conditions: Compound concentration 10.0 uM
[17] = target: T3, Alpha-1D adrenergic receptor (Homo sapiens) (UniProt P25100); assay: ALPHA1D/H Eurofins-Panlabs selectivity data (BI); conditions: Compound concentration 10.0 uM
T3 sequence (whole entry): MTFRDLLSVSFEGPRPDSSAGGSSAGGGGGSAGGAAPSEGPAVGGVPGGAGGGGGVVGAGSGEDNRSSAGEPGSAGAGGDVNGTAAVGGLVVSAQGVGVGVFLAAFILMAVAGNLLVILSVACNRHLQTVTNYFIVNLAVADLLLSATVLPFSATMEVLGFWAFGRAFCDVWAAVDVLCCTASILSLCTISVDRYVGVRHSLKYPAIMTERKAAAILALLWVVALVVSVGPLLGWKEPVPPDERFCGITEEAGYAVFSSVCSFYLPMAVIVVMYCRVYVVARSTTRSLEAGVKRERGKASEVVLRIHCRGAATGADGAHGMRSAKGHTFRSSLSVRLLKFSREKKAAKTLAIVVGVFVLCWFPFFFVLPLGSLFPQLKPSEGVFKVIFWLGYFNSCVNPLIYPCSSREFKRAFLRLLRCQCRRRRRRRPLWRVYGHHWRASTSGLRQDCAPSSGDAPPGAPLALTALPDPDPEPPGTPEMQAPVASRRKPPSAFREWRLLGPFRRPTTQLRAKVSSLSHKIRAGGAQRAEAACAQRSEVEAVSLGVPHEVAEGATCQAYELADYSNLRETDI

[18] = target: 3',5'-cyclic-AMP phosphodiesterase 4A (Rattus norvegicus) (UniProt P54748); assay: ROLIPRAM/R Eurofins-Panlabs selectivity data (BI); conditions: Compound concentration 10.0 uM
Sequence of 3',5'-cyclic-AMP phosphodiesterase 4A (Rattus norvegicus) (P54748 whole entry): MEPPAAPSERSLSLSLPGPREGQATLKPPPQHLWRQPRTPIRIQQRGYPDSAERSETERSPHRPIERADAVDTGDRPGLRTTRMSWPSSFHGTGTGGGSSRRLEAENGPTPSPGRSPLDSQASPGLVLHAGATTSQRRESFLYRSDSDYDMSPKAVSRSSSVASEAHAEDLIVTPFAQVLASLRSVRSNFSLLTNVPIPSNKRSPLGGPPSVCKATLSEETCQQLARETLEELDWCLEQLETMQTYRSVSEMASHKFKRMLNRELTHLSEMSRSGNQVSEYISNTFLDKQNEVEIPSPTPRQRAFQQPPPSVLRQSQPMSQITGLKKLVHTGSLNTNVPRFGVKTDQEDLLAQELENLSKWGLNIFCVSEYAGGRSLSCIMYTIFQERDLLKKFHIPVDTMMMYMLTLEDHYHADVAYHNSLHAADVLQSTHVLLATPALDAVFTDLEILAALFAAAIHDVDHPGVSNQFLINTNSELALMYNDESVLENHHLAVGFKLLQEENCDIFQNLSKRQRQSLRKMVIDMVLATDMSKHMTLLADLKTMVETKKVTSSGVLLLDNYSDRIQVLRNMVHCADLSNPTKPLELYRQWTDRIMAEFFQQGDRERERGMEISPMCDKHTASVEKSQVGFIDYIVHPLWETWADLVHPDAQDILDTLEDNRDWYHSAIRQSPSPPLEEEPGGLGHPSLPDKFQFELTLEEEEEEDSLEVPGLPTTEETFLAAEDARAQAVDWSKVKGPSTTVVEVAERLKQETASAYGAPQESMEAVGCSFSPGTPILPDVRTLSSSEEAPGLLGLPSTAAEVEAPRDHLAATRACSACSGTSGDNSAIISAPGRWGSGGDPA

[19] = target: B2 bradykinin receptor (Homo sapiens) (UniProt P30411); assay: B2/H Eurofins-Panlabs selectivity data (BI); conditions: filed as antagonist, Compound concentration 10.0 uM
Sequence of B2 bradykinin receptor (Homo sapiens) (P30411 whole entry): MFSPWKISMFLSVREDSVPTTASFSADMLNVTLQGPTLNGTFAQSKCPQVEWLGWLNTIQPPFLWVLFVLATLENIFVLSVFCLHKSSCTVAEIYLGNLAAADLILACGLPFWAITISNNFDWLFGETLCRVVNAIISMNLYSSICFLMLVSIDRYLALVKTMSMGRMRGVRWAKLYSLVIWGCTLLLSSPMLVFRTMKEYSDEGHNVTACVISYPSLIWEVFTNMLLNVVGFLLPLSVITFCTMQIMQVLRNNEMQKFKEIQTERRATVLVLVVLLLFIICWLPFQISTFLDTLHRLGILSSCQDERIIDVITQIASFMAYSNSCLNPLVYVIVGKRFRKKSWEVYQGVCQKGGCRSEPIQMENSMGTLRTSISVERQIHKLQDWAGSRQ

[20] = target: Glucocorticoid receptor (Homo sapiens) (UniProt P04150); assay: GLUCOCORTICO Eurofins-Panlabs selectivity data (BI); conditions: Compound concentration 10.0 uM
[21] = target: Platelet-activating factor receptor (Homo sapiens) (UniProt P25105); assay: PAF/H Eurofins-Panlabs selectivity data (BI); conditions: Compound concentration 10.0 uM
Sequence of Platelet-activating factor receptor (Homo sapiens) (P25105 whole entry): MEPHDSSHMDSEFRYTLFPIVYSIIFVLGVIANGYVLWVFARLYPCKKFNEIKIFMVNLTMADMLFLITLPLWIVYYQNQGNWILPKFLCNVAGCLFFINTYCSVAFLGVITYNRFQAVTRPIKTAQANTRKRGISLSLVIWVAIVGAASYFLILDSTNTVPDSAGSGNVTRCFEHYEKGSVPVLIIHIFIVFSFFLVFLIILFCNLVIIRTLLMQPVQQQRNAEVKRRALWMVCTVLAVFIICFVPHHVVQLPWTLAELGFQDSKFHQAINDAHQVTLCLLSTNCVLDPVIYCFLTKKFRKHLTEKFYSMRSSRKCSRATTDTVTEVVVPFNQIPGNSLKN

[22] = target: Kappa-type opioid receptor (Homo sapiens) (UniProt P41145); assay: KAPPA/HU Eurofins-Panlabs selectivity data (BI); conditions: Compound concentration 10.0 uM
Sequence of Kappa-type opioid receptor (Homo sapiens) (P41145 whole entry): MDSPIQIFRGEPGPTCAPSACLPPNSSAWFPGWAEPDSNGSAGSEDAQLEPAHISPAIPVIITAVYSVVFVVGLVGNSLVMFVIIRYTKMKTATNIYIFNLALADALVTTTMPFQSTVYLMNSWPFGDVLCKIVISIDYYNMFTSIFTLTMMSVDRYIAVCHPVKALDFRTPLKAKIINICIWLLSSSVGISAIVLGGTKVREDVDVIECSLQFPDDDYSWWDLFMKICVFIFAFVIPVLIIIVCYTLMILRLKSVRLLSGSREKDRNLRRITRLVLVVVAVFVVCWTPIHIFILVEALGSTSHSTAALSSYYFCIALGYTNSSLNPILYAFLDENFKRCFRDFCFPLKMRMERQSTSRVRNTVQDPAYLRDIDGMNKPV

[23] = target: D(2) dopamine receptor (Homo sapiens) (UniProt P14416); assay: D2S/HU Eurofins-Panlabs selectivity data (BI); conditions: Compound concentration 10.0 uM

Sequence of Muscarinic acetylcholine receptor M3 (Homo sapiens) (P20309 whole entry, looked up): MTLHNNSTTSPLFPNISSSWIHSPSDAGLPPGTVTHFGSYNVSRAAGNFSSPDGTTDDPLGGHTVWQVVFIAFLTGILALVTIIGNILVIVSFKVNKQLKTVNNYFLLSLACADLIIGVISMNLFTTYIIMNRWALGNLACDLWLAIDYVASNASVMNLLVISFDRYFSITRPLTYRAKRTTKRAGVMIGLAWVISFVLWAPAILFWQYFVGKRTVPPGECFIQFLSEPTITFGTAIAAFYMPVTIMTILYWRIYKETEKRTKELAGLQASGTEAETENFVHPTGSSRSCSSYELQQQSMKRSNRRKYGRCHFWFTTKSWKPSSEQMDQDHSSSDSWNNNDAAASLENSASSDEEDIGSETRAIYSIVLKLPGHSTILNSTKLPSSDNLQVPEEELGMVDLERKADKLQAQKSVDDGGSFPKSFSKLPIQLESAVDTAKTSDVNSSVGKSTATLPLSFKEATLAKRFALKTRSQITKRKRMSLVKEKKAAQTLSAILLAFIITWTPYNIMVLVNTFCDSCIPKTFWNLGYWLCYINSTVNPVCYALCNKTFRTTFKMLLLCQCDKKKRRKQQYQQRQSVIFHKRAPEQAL
Sequence of 5-hydroxytryptamine receptor 2C (Homo sapiens) (P28335 whole entry): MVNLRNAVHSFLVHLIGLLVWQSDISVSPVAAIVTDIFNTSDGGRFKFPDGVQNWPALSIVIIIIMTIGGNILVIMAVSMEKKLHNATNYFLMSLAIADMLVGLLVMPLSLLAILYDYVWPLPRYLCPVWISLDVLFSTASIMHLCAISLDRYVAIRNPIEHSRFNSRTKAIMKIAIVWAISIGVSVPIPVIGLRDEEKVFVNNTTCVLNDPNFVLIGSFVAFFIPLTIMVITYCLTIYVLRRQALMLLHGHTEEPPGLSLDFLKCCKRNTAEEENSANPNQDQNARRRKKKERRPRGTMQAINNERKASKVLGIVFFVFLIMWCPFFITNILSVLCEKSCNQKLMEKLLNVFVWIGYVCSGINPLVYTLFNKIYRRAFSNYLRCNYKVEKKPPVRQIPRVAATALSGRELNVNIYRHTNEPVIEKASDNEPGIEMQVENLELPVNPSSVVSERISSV

CS(=O)(=O)NCC[C@H](NC(=O)c1cncc2c1cnn2-c1ccc(F)cc1)c1ccnc(S(C)(=O)=O)c1 [BI 9307]
inactive: residual activity [1] 100% | inhibition [2] -0.86%

CS(=O)(=O)c1cc(C2(NC(=O)c3cncc4c3cnn4-c3ccc(F)cc3)CC2)ccn1 [BI 639667]
inactive: inhibition [3] 22% | residual activity [4] 97% | residual activity [5] 95% | residual activity [6] 100% | residual activity [7] 100% | residual activity [8] 100% | residual activity [9] 81% | residual activity [10] 94% | residual activity [11] 91% | residual activity [12] 79% | residual activity [13] 94% | residual activity [14] 96% | residual activity [15] 91% | residual activity [16] 87% | residual activity [17] 82% | residual activity [18] 81% | residual activity [19] 100% | residual activity [20] 96% | residual activity [21] 93% | residual activity [22] 101% | residual activity [23] 93%
